Values quoted from earlier work in US9636338B2, “Phenyl-dihydropyridine derivatives as inhibitors of aldosterone synthase” (Hoffmann-La Roche Inc., priority 2013, dated 2017).

Molecular target: CYP11B2 (Homo sapiens (Human), UniProt P19099)
Details: patients with primary aldosteronism; oral; cited from earlier work

Chain of CYP11B2 (P19099 25-503): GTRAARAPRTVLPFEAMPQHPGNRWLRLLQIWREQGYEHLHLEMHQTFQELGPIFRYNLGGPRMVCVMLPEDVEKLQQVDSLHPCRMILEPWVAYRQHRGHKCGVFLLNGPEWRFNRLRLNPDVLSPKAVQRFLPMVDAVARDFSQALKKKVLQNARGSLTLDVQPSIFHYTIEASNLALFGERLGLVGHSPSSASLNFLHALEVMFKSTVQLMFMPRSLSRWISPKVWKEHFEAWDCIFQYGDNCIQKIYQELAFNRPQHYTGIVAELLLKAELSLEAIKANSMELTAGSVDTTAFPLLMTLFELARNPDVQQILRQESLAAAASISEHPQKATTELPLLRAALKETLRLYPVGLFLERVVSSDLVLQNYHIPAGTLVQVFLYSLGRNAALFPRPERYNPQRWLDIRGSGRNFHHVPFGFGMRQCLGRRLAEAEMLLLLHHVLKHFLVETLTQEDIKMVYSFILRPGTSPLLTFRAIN

N#Cc1ccc([C@H]2CCc3cncn32)c(F)c1 [LCI699]
blood pressure: mildly decreased
circulating aldosterone levels: significantly lower
hypokalemia: corrected
